Mass density and speed of sound data for ten compounds are collected here from the NIST ThermoML archive (doi:10.1016/j.fluid.2005.06.024).

Numbers after ± are expanded uncertainties.

Data set [1] is described as follows: xn = mol fraction of the nth substance listed. Particulars: 298.15 K, 101.3 kPa, Liquid.
For data set [2] the following is noted: 298.15 K; 101.3 kPa; Liquid.

As for `CCC(C)=O` [butanone] + CCOC(=O)OCC, in data set [1] (x1 = 1), the mass density is 799.7 ± 0.35 kg/m3 and the speed of sound is 1192 ± 2 m/s.

Regarding `CCOC(=O)OCC` [diethyl carbonate], in data set [2], the mass density amounted to 969.24 ± 0.27 kg/m3 and the speed of sound is listed as 1178 ± 2 m/s.

As for `CCOC(=O)OCC` [diethyl carbonate] + CC(C)=O, the mass density is given as 969.24 ± 0.27 kg/m3 in data set [1] (x2 = 0); 964.96 ± 0.27 kg/m3 in data set [1] (x2 = 0.0384); 959 ± 0.26 kg/m3 in data set [1] (x2 = 0.0901); 947.54 ± 0.26 kg/m3 in data set [1] (x2 = 0.1832); 934.21 ± 0.25 kg/m3 in data set [1] (x2 = 0.2827); 919.29 ± 0.25 kg/m3 in data set [1] (x2 = 0.3847). The mass density worked out at 903.08 ± 0.26 kg/m3 in data set [1] (x2 = 0.4847); 884.33 ± 0.26 kg/m3 in data set [1] (x2 = 0.5888); 863.26 ± 0.26 kg/m3 in data set [1] (x2 = 0.6936); 839.9 ± 0.27 kg/m3 in data set [1] (x2 = 0.7967); 813 ± 0.29 kg/m3 in data set [1] (x2 = 0.9017); 798.07 ± 0.3 kg/m3 in data set [1] (x2 = 0.9546). Also, the speed of sound in data set [1] (x2 = 0) is reported as 1178 ± 2 m/s; in data set [1] (x2 = 0.0384), 1177 ± 2 m/s; in data set [1] (x2 = 0.0901) it was 1176 ± 2 m/s; in data set [1] (x2 = 0.1832), 1175 ± 2 m/s; in data set [1] (x2 = 0.2827) it was 1173 ± 2 m/s; in data set [1] (x2 = 0.3847), 1171 ± 2 m/s. Moreover, the speed of sound in data set [1] (x2 = 0.4847) amounted to 1170 ± 2 m/s; in data set [1] (x2 = 0.5888), 1168 ± 2 m/s; in data set [1] (x2 = 0.6936), 1166 ± 2 m/s; in data set [1] (x2 = 0.7967), 1164 ± 2 m/s; in data set [1] (x2 = 0.9017), 1162 ± 2 m/s; in data set [1] (x2 = 0.9546), 1162 ± 2 m/s.

Take `CC(C)=O` [acetone] + CCOC(=O)OCC: in data set [1] (x1 = 1), the mass density turned out to be 784.37 ± 0.31 kg/m3 and the speed of sound is listed as 1162 ± 2 m/s.

In the case of `CC(C)=O` [acetone], in data set [2], the mass density turned out to be 784.37 ± 0.31 kg/m3 and the speed of sound is 1162 ± 2 m/s.

For the compound `CCCC(C)=O` [pentan-2-one], in data set [2], the mass density is given as 801.39 ± 0.35 kg/m3 and the speed of sound is 1212 ± 2 m/s.

For `CCCC(C)=O` [pentan-2-one] + CCOC(=O)OCC, the mass density in data set [1] (x1 = 0.0483) came out at 962.08 ± 0.27 kg/m3; in data set [1] (x1 = 0.0983), 954.6 ± 0.28 kg/m3; in data set [1] (x1 = 0.1923), 940.27 ± 0.28 kg/m3; in data set [1] (x1 = 0.2988), 923.61 ± 0.29 kg/m3; in data set [1] (x1 = 0.3998) it was 907.38 ± 0.3 kg/m3; in data set [1] (x1 = 0.4996) it was 890.92 ± 0.31 kg/m3. In addition, the mass density in data set [1] (x1 = 0.6034) is on record as 873.34 ± 0.31 kg/m3; in data set [1] (x1 = 0.7077) it was 855.18 ± 0.32 kg/m3; in data set [1] (x1 = 0.8037), 838 ± 0.33 kg/m3; in data set [1] (x1 = 0.9026), 819.83 ± 0.34 kg/m3; in data set [1] (x1 = 0.9491), 811.1 ± 0.34 kg/m3; in data set [1] (x1 = 1), 801.39 ± 0.35 kg/m3. The speed of sound in data set [1] (x1 = 0.0483) amounted to 1179 ± 2 m/s; in data set [1] (x1 = 0.0983) it was 1180 ± 2 m/s; in data set [1] (x1 = 0.1923) it was 1183 ± 2 m/s; in data set [1] (x1 = 0.2988) it was 1187 ± 2 m/s; in data set [1] (x1 = 0.3998), 1190 ± 2 m/s; in data set [1] (x1 = 0.4996), 1193 ± 2 m/s. Moreover, the speed of sound in data set [1] (x1 = 0.6034) was found to be 1197 ± 2 m/s; in data set [1] (x1 = 0.7077) it was 1201 ± 2 m/s; in data set [1] (x1 = 0.8037) it was 1204 ± 2 m/s; in data set [1] (x1 = 0.9026) it was 1208 ± 2 m/s; in data set [1] (x1 = 0.9491), 1210 ± 2 m/s; in data set [1] (x1 = 1), 1212 ± 2 m/s.

For `CCC(C)=O` [butanone], in data set [2], the mass density worked out at 799.7 ± 0.35 kg/m3 and the speed of sound is reported as 1192 ± 2 m/s.

Consider `CCOC(=O)OCC` [diethyl carbonate] + CCCC(C)=O, for which, in data set [1] (x2 = 0), the mass density amounted to 969.24 ± 0.27 kg/m3 and the speed of sound is reported as 1178 ± 2 m/s.

For `CCOC(=O)OCC` [diethyl carbonate] + CCC(C)=O, the mass density worked out at 969.24 ± 0.27 kg/m3 in data set [1] (x2 = 0); 963.14 ± 0.27 kg/m3 in data set [1] (x2 = 0.0486); 956.52 ± 0.28 kg/m3 in data set [1] (x2 = 0.1002); 943.68 ± 0.28 kg/m3 in data set [1] (x2 = 0.1958); 929.22 ± 0.29 kg/m3 in data set [1] (x2 = 0.2977); 913.95 ± 0.29 kg/m3 in data set [1] (x2 = 0.399). The mass density in data set [1] (x2 = 0.4976) is recorded as 898.2 ± 0.31 kg/m3; in data set [1] (x2 = 0.6444), 872.87 ± 0.31 kg/m3; in data set [1] (x2 = 0.7172), 859.36 ± 0.32 kg/m3; in data set [1] (x2 = 0.8294), 837.19 ± 0.33 kg/m3; in data set [1] (x2 = 0.9031), 821.58 ± 0.34 kg/m3; in data set [1] (x2 = 0.9554), 810.05 ± 0.34 kg/m3. The speed of sound in data set [1] (x2 = 0) was found to be 1178 ± 2 m/s; in data set [1] (x2 = 0.0486), 1178 ± 2 m/s; in data set [1] (x2 = 0.1002), 1179 ± 2 m/s; in data set [1] (x2 = 0.1958) it was 1180 ± 2 m/s; in data set [1] (x2 = 0.2977) it was 1181 ± 2 m/s; in data set [1] (x2 = 0.399), 1182 ± 2 m/s. Besides, the speed of sound in data set [1] (x2 = 0.4976) was 1184 ± 2 m/s; in data set [1] (x2 = 0.6444), 1186 ± 2 m/s; in data set [1] (x2 = 0.7172), 1187 ± 2 m/s; in data set [1] (x2 = 0.8294), 1189 ± 2 m/s; in data set [1] (x2 = 0.9031), 1190 ± 2 m/s; in data set [1] (x2 = 0.9554), 1191 ± 2 m/s.
